Tested on: BT-474 xenograft tumor
Experiment: Human breast cancer (BT-474) xenograft tumor model in nude mice
Type: in vivo, BALB/c female nude mice
Details: for Mean tumor volume (day 28) / T/C / TGI: day 28; for Mean tumor volume (day 0): day 0 (start of treatment, baseline)
Procedure: BALB/c female nude mice (provided by Shanghai Sippr-BK Lab. Animal Co., Ltd.), SPF-grade, weight 18-25 g, aged about 8 weeks (tumor-bearing). Human breast cancer BT-474 cells (ATCC) were cultured in Hybri-Care medium containing 10% fetal bovine serum, 100 U/mL penicillin and […] in vitro monolayer culture at 37° C./5% CO2. The cells were digested with trypsin-EDTA twice a week for passaging as per conventional practice. When cell confluence was 80%-90%, the cells were collected, counted, and inoculated. Estrogen tablets were implanted 3 days before cell inoculation, 0.2 mL of BT-474 cells (1×10^7) were subcutaneously inoculated on the right back of each mouse, and grouping and administration was initiated when the mean tumor volume reached 127.19 mm^3. The compound of formula I was dissolved in a vehicle: 0.01 mol/L HCl solution, 0.5% methylcellulose and deionized water were mixed well in a volume ratio of 20:30:100.
The tumor volume was calculated using the following formula: V=0.5a×b^2, where a and b represent the long diameter and short diameter of the tumor, respectively. The percentage value of TIC (%) reflects the tumor growth inhibition rate, and where T and C represent the tumor weight (tumor volume) of the treatment groups and the control group, respectively, on a certain day.
The tumor growth inhibition rate was calculated using the following formula: TGI (%)=[1−(Ti−T0)/(Vi−V0)]×100, where Ti is the mean tumor volume of a certain treatment group on a certain day, T0 is the mean tumor volume of the treatment group at the start of treatment, Vi is the mean tumor volume of the vehicle control group on a certain day (same day as Ti) and V0 is the mean tumor volume of the vehicle control group at the start of treatment. Tumor weights were measured at the end of treatment and percentage Tweight/Cweight was calculated, where Tweight and Cweight represent the tumor weights of the treatment and vehicle control groups, respectively.

[1] = 1 mg/kg orally once daily for 28 days
[2] = 2 mg/kg orally once daily for 28 days
[3] = 4 mg/kg orally once daily for 28 days

With `COc1ncc(-c2ccc3ncc(OCCN(C)C)c(=O)n3c2)cc1NS(=O)(=O)c1ccc(F)cc1Cl` [Compound of formula I] the “Mean tumor volume (day 28)” value [1] was 223 ± 50 mm^3, the T/C [1] was 56.09% and the TGI [1] was 64.56%. For the same compound, the “Mean tumor volume (day 0)” value (1 mg/kg orally once daily) was 127 ± 11 mm^3, the “Mean tumor volume (day 28)” value [2] was 159 ± 36 mm^3 and the T/C [2] was 40.11%. The TGI [2] was 88.10%, the “Mean tumor volume (day 0)” value (2 mg/kg orally once daily) was 127 ± 11 mm^3 and the “Mean tumor volume (day 28)” value [3] was 145 ± 40 mm^3. The T/C [3] was 36.52%, the TGI [3] was 93.35% and the “Mean tumor volume (day 0)” value (4 mg/kg orally once daily) was 127 ± 11 mm^3. For the same compound, the “anti-tumor efficacy (in words)” value (BT-474 xenograft tumor model, 1-4 mg/kg orally) was “significant anti-tumor efficacy”.

From US20230119759A1, “PHARMACEUTICAL COMBINATION COMPRISING PYRIDINO[1,2-A]PYRIMIDINONE COMPOUND” (CHIA TAI TIANQING PHARMACEUTICAL GROUP CO., LTD., priority 2020, published 2023)
